# According to US12527757B2, “Nanoemulsion of 18BETA-glycyrrhetinic acid” (ATSO CORPORATE AFFAIRS, S.A. DE C.V., priority 2019, dated 2026):
# Like-named read-outs stand apart in the source and are kept apart here.
# Columns and labels:
# [1] = tested on: HeLa cells; test: Cell survival inhibition assay, HeLa; type: cell-based; details: HeLa (HPV-18), 24 hours, 10-100 μM
# Experimental: (§1) In this sense, a cell survival inhibition assay of different cell lines was carried out when exposed for hours 24 to one of the two drugs from FIG. 1. In this experiment, four cell lines were tested: HeLa, which are cell lines representative of cancer and HPV-18 infection, SiHa which are cells representative of cervical cancer with HPV-16 infection, C-33A which are cells representative of HPV-negative cervical carcinoma, and HaCaT, which are cancer and infection negative cells. The experiment consisted of exposing cells of the different cell lines to different concentrations of both drugs for 24 hours (10-100 μM) going in steps of 10 μM each.
# [2] = tested on: SiHa cells; test: Cell survival inhibition assay, SiHa; type: cell-based; details: SiHa (HPV-16), 24 hours, 10-100 μM
# Experimental: as §1
# [3] = tested on: C-33A cells; test: Cell survival inhibition assay, C-33A; type: cell-based; details: C-33A (HPV-negative cervical carcinoma), 24 hours, 10-100 μM
# Experimental: as §1
# [4] = tested on: HeLa cells; test: Alkaline comet assay (single cell electrophoresis), HeLa; type: cell-based; details: HeLa cancer cells
# Experimental: (§2) This difference in drug performance can be explained by the difference in their mechanisms of action. […] The comet assay is an experiment that allows to see if the drug has a cytotoxic effect related to DNA fragmentation of the cells. This difference is visualized by the size of the “tails” of the “comets”, which is the fragmented DNA from the cells under study.
# (§3) An analysis with a Wilcoxon test was performed to verify whether the means in the percentage of DNA in the comet tails of the different cell lines differ.
# (§4) FIG. 2 depicts representative tail-DNA percentage data. (A) Microphotographs of the alkaline comet assay showing representative images of the CC cell lines and their negative control with their 18β and GA treatments of HeLa (HPV 18 cervical cancer) and HaCaT (HPV negative immortalized keratinocyte) (B) Comet assay data plot of Tail-DNA percentage **P<0.43 for HaCaT and P<2^−16. Larger comets for 18β treatment are observed.
# [5] = tested on: HaCaT cells; test: Alkaline comet assay (single cell electrophoresis), HaCaT; type: cell-based
# Experimental: as §2, §3, §4
# [6] = cited from earlier work
# [7] = cited from earlier work; remark: listed apart in the source
# [8] = tested on: Rotavirus; details: infected cultures; cited from earlier work
# [9] = tested on: Hepatitis C virus (HCV); details: by preventing the release of infectious viral particles; cited from earlier work
SMILES,inhibition of cell survival [1],inhibition of cell survival [2],inhibition of cell survival [3],DNA fragmentation (comet tails) [4],DNA fragmentation (comet tails) [5],log P [6],solubility in water [7],interference with Rotavirus replication [8],DNA fragmentation (comet tails) ([5]; HaCaT healthy cells),reduction of Hepatitis C virus (HCV) titers [9] [%]
"CC1(C)[C@@H](O)CC[C@]2(C)[C@H]3C(=O)C=C4[C@@H]5C[C@@](C)(C(=O)O)CC[C@]5(C)CC[C@@]4(C)[C@]3(C)CC[C@@H]12 [Example 18β-GA, 18β-glycyrrhetinic acid]",greater effect than GA,greater effect than GA,greater effect than GA,considerable DNA fragmentation,much less fragmentation,6.574,insoluble in water,up to 99%,–,–
"CC1(C)[C@@H](O[C@H]2O[C@H](C(=O)O)[C@@H](O)[C@H](O)[C@H]2O[C@@H]2O[C@H](C(=O)O)[C@@H](O)[C@H](O)[C@H]2O)CC[C@]2(C)[C@H]3C(=O)C=C4[C@@H]5C[C@@](C)(C(=O)O)CC[C@]5(C)CC[C@@]4(C)[C@]3(C)CC[C@@H]12 [GA, Glycyrrhizic acid]",minor effect,no effect,minor effect,do not present this fragmentation,–,–,–,–,do not present this fragmentation,50
